# In article PMC7932537, “Quantitative profiling of protease specificity” (PLoS Computational Biology, 2021):
# Tested on: MMP-2
# Test: Substrate phage display with NGS: relative probability (RP) of P3-P1' tetramer clusters
# Format: biochemical, human
# Settings: MMP2 - no binning; average relative probability (RP) of the P3-P1' tetramer; redundant tetramers have been averaged out
row,Substance,avg_RP
1,VEPL,2.5219
2,PDQL,0.2814
3,GQGL,0.1555
4,TAWL,24.7743
5,AFHL,8.795
6,HQWL,19.2059
7,AGHL,15.0568
8,YRSM,5.2577
9,TWRL,0
10,YLNL,0.3873
11,PLPW,30.0861
12,AKML,2.8249
13,PSLI,16.6444
14,GHNL,0.2721
15,AWNM,2.0017
16,PNRL,14.3701
17,PVNM,30.0312
18,AHAL,27.1646
19,YLPL,2.3089
20,ANYI,1.6587
21,GAKL,0.1271

# Same assay, conditions: MMP2 - no binning; average relative probability of the P3-P1' tetramer; redundant tetramers have been averaged out
row,Substance,avg_RP
1,PHSM,24.6739
2,PSFL,29.537
3,FEHL,1.2103
4,VLMM,2.7364
5,LGHL [P3-P1' tetramer cluster],31.1653
6,PWFL,12.628
7,FLHL,0.8093
8,IQSL,25.2682
9,LQNL,27.5155
10,QQNL,4.2466
11,YANM,22.6837
12,LGTL,24.6198
13,FRML,0.2112
14,VFAL,11.8827
15,VLWL,11.1539
16,ASGL,25.6721
17,SWAW,0.0563
18,MDLL,0.2864
19,FSEL,12.1057
20,LAHV,11.7405
21,PKQL,26.0949

row,Substance,avg_RP
1,GMNM,0
2,VWHV,0
3,VRNW,17.7682
4,VKHL,14.8595
5,AHQL,4.1004
6,FSNL,24
7,YFPL,0.1432
8,WRHL,0.4087
9,LSHL,29.8814
10,VLHL,19.5348
11,PLHL,34.1843
12,GNSL,0.2884
13,ARQL,3.2139
14,GLNL,0.5789
15,AMNI,4.1669
16,VIAL,8.0877
17,VNYL,8.4267
18,PNWL,26.5667
19,AQAL,22.7358
20,PLTI,16.7446

# Same assay, conditions: MMP2 - no binning; average relative probability of the tetramer; redundant tetramers averaged out
row,Substance,avg_RP
1,PHGF,21.975
2,VKWL,19.0036
3,ANNL,18.8719
4,PGKM,18.9001
5,ISWM,28.3587
6,VRFL,15.0438
7,WASI,12.5247
8,PNFL,15.743
9,PSAL [P3-P1' tetramer cluster],36.1873
10,PSGW,32.6048
11,HLAL,11.3603
12,VMNY,12.7895
13,VFSL,9.6313
14,VRGL,29.092
15,ALGI,18.2164
16,ALNF,9.2594
17,PVHL,32.2352
18,PWFM,3.6842
19,VAYL,26.5348
20,AYSL,18.7071
21,AHGL,23.6336
22,PLAF,31.4142

row,Substance,avg_RP
1,PKLI,0.9254
2,TQNL,7.2378
3,PSGF,31.2448
4,ISNW,26.0602
5,GRHL,3.5979
6,YAGL,20.9112
7,SLNL,3.3019
8,VWML,1.4023
9,TRWL,15.1455
10,SLAW,18.2943
11,PAPM,30.2085
12,PWNY,16.9576
13,MLHL,8.4169
14,LGNL,33.3542
15,PVPM,31.3308
16,IRML,12.7446
17,PVWM,25.8126
18,IEYL,5.366
19,YNHL,3.693
20,VWAI,3.2193
21,VKGM,15.5854

# Same assay, conditions: tetramer annotation of MMP-2 cleavage sites in all substrates from MEROPS
row,Substance,relative probability (RP)
1,AAGL,29.36

# Same assay, conditions: tetramer clusters unique to the MMP-2 selectome, MMP-2 RP
row,Substance,relative_probability
1,LGHL [P3-P1' tetramer cluster],31.17

# Same assay, conditions: tetramer probability in MMP2 set / naive library; 200 nM protease, 2 h, 37°C
row,Substance,relative probability (RP)
1,PSAL [P3-P1' tetramer cluster],36.1873

# Same assay, conditions: tetramer projected onto MMP-2 cleavage sites determined by Prudova et al. (2010)
row,Substance,relative probability (RP)
1,PSAL [P3-P1' tetramer cluster],36.19
